From patent US20040259926A1, “3-Aryloxy and 3-heteroaryloxy substituted benzo[b]thiophenes as therapeutic agents” (priority 2003, published 2004)

Target: T1, PI3Kγ (recombinant p101/p110γ protein) (Homo sapiens, UniProt P48736)
T1 construct: HA; made in house; host or cells: Spodoptera frugiperda (Sf9) cells, baculovirus co-infection
Assay: PI3Kγ In Vitro Kinase Assay
Assay type: biochemical
Conditions: purified recombinant p101/p110γ with G protein β1/γ2 subunits; 20 μM ATP, [γ-32P-ATP]; 25 μM PIP2 lipid micelles; 20 minutes at room temperature
Procedure: Spodtera frugiperda cells, grown in ESF921 media, were coinfected with baculovirus expressing a glu-tagged […] and baculovirus expressing an HA-tagged p110γ, at a 3:1 ratio of p101 baculovirus to p110γ baculovirus. Sf9 cells were grown to 1×10^7 total cells/mL in 10 L bioreactors and harvested 48-72 hours post infection. Samples of infected cells were then tested for expression of p101/p110γ PI3 kinase by immunoprecipitation and Western Blot analysis methods (see below).
To purify PI3Kγ, 4 volumes of room temperature hypotonic lysis buffer (1 mM MgCl2, 1 mM DTT, 5 mM EGTA, 1 mM Pefabloc, 0.5 μM aprotinin, 5 μM leupeptin, 2 μM pepstatin, 5 μM E64, pH 8) per gram of cell paste, was poured onto frozen cell pellets with stirring, then lysed in a nitrogen “bomb” at 400 psi (599 HC T316, Parr Instrument Co, Moline, Ill.). NaCl was added to 150 mM, and sodium cholate was added to 1% and mixed for another 45 minutes. The lysates were clarified by centrifugation for 25 minutes at 14,000 rpm. The lysates were then loaded over anti-glu-linked Protein-G Sepaharose beads (Covance Research Products, Richmond, Calif.) using 20 mL resin/50 g cell paste. The column was washed with 15 volumes of wash buffer (1 mM DTT, 0.2 mM EGTA, 1 mM Pefabloc, 0.5 μM aprotinin, 5 μM leupeptin, 2 μM pepstatin, 5 μM E64, 150 mM NaCl, 1% sodium cholate, pH 8). PI3Kγ was eluted with 6 column volumes of wash buffer that contain 100 μg/mL of a peptide that competes for binding of the glu tag. The column fractions with the eluted protein (determined by taking OD280 readings) were collected and dialyzed in 0.2 mM EGTA, 1 mM DTT, 1 mM Pefabloc, 5 μM leupeptin, 0.5% sodium cholate, 150 mM NaCl, and 50% glycerol, pH 8. The fractions were stored at −80° C. until further use.
Spodtera frugiperda cells were coinfected with baculovirus expressing a glu-tagged G protein β1 and baculovirus expressing a G protein β2 at a 1:1 ratio of glu-tagged G protein β1 baculovirus to G protein β2 baculovirus. Sf9 cells are grown in 10 L bioreactors and harvested 48-72 hours post infection. Samples of infected cells were tested for G protein β1/β2 expression by Western Blot analysis, as described below. Cell lysates were homogenized and loaded onto a column of glu-tagged beads as in Biological Example 1 and competed off the column with a glu peptide and processed as described in Biological Example 1.
The inhibitory properties of the compounds in Table 1 were assayed in an in vitro PI3K assay. In a 96-well polypropylene plate, each well was spotted with 2 μL of 50 times the desired final concentration of compound in DMSO. Purified recombinant p101/p110γ protein (0.03 μg; ˜2.7 nM) and G protein β1/γ2 subunits (0.09 μg; ˜57.7 nM) for each reaction was combined in the assay buffer (30 mM HEPES, 100 mM NaCl, 1 mM EGTA, and 1 mM DTT). ATP and [γ-^32P-ATP] (0.09 μCi) were added to this mixture so that the final ATP concentration in the reaction was 20 μM. Lipid micelles were formed by sonicating phosphatidylinositol-4,5-diphosphate (PIP2), phosphatidylethanolamine (PE), and Na-cholate in the assay buffer for 10 minutes, adding MgCl2 and incubating on ice for 20 minutes, for final concentrations of 25 μM PIP2, 300 μM PE, 0.02% Na-cholate, and 10 mM MgCl2 in the reaction. The reactions were started by adding equal volumes lipid and enzyme mixture in a total volume of 50 μL, allowed to run for 20 minutes at room temperature, and stopped with 100 μL 75 mM H3PO4. The lipid product was transferred to a glass fiber filter plate and washed with 75 mM H3PO4 several times. The presence of radioactive lipid product (PIP3) was measured by adding Wallac Optiphase mix to each well and counting in a Wallac 1450 Trilux plate reader (PerkinElmer Life Sciences Inc., Boston, Mass. 02118). The IC50 for each compound tested is reported in μM in Table 1: […]

T1 sequence (P48736 whole entry, species assumed): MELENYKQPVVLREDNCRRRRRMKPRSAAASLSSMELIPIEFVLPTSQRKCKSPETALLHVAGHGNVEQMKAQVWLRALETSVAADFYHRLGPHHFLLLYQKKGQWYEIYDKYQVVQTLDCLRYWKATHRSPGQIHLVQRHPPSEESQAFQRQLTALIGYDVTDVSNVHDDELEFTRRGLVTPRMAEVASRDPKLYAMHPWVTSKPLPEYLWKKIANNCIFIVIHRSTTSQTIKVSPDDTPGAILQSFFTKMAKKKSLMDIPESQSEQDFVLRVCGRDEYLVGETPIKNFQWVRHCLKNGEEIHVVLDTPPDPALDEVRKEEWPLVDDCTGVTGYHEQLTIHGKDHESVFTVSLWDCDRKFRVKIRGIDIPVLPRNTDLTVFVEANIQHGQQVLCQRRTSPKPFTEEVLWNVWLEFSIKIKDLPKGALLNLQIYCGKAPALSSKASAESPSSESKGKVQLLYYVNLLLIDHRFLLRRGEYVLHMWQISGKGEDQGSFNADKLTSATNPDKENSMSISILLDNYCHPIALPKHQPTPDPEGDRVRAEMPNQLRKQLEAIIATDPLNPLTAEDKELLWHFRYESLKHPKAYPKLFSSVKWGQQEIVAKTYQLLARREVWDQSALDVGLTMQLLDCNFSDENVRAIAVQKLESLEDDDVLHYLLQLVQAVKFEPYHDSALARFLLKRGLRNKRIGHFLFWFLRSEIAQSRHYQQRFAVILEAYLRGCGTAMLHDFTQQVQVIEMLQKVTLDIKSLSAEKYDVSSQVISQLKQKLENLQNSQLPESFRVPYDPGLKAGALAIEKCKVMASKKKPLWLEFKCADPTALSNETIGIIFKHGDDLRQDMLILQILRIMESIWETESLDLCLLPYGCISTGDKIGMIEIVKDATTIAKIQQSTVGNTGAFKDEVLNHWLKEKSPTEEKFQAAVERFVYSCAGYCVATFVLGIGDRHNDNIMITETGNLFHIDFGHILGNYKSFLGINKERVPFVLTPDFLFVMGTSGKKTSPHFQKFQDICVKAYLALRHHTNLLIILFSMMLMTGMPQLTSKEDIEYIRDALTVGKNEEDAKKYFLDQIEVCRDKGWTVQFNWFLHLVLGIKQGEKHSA
T1 sequence (Q8WYR1 whole entry partner, species assumed): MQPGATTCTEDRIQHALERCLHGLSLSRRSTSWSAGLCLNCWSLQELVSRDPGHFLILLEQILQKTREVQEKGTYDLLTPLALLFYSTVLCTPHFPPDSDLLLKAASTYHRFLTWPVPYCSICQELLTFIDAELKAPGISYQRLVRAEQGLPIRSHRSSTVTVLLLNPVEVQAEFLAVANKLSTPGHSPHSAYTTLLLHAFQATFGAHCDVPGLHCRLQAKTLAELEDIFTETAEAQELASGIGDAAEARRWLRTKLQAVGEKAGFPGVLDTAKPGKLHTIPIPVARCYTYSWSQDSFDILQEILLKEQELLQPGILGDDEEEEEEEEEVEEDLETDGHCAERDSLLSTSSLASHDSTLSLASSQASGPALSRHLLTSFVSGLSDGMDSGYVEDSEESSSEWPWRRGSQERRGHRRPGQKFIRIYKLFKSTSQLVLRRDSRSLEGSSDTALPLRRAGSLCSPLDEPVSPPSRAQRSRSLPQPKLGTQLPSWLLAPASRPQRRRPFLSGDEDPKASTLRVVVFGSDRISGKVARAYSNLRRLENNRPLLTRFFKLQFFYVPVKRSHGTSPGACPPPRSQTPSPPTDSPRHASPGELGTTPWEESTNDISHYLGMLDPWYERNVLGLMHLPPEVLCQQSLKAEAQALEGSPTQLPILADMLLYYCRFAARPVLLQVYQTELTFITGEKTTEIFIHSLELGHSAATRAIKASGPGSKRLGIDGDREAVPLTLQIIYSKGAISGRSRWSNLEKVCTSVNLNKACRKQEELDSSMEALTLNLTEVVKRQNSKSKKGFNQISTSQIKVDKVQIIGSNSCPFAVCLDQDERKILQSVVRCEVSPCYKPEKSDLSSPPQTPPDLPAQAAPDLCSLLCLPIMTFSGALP

SMILES | IC50 [nM]
COc1cc2c(Oc3ccc(CC(=O)N4CCCCC4)cc3)c(C(=O)Nc3nn[nH]n3)sc2cc1C [Example B.7, 5-Methoxy-6-methyl-3-[4-(2-oxo-2-piperidin-1-yl-ethyl)-phenoxy]-benzo[b]thiophene-2-carboxylic acid (2H-tetrazol-5-yl)-amide] | 28
COc1cc2c(Oc3ccc(CCC(=O)N4CCCCC4)cc3)c(C(=O)Nc3nn[nH]n3)sc2cc1C [Example B.8, 5-Methoxy-6-methyl-3-[4-(3-oxo-3-piperidin-1-yl-propyl)-phenoxy]-benzo[b]thiophene-2-carboxylic acid (2H-tetrazol-5-yl)-amide] | 33
COc1cc2c(Oc3cccc(C4CCCCC4)c3)c(C(=O)Nc3nn[nH]n3)sc2cc1C [Example B.9, 3-(3-Cyclohexyl-phenoxy)-5-methoxy-6-methyl-benzo[b]thiophene-2-carboxylic acid (2H-tetrazol-5-yl)-amide] | 63
COc1cc2c(Oc3ccc(CCBr)cc3)c(C(=O)Nc3nn[nH]n3)sc2cc1C [Example B.10, 3-[4-(2-Bromo-ethyl)-phenoxy]-5-methoxy-6-methyl-benzo[b]thiophene-2-carboxylic acid (2H-tetrazol-5-yl)-amide] | 15
COc1cc2c(Oc3ccc4c(c3)CCCC4)c(C(=O)Nc3nn[nH]n3)sc2cc1C [Example B.11, 5-Methoxy-6-methyl-3-(5,6,7,8-tetrahydro-naphthalen-2yloxy)-benzo[b]thiophene-2-carboxylic acid (2H-tetrazol-5-yl)-amide] | 86
COc1cc2c(Oc3ccc(C(C)C)cc3)c(C(=O)Nc3nn[nH]n3)sc2cc1C [Example B.12, 3-(4-Isopropyl-phenoxy)-5-methoxy-6-methyl-benzo[b]thiophene-2-carboxylic acid (2H-tetrazol-5-yl)-amide] | 17
CCCCc1ccc(Oc2c(C(=O)Nc3nn[nH]n3)sc3cc(C)c(OC)cc23)cc1 [Example B.13, 3-(4-Butyl-phenoxy)-5-methoxy-6-methyl-benzo[b]thiophene-2-carboxylic acid (2H-tetrazol-5-yl)-amide] | 31
CCCCCCOc1ccc(Oc2c(C(=O)Nc3nn[nH]n3)sc3cc(C)c(OC)cc23)cc1 [Example B.14, 3-(4-Hexyloxy-phenoxy)-5-methoxy-6-methyl-benzo[b]thiophene-2-carboxylic acid (2H-tetrazol-5-yl)-amide] | 365
COc1cc2c(Oc3ccc(OCc4ccccc4)cc3)c(C(=O)Nc3nn[nH]n3)sc2cc1C [Example B.15, 3-(4-Benzyloxy-phenoxy)-5-methoxy-6-methyl-benzo[b]thiophene-2-carboxylic acid (2H-tetrazol-5-yl)-amide] | 76
COc1cc2c(Oc3ccc(OCC4CCCCC4)cc3)c(C(=O)Nc3nn[nH]n3)sc2cc1C [Example B.16, 3-(4-Cyclohexylmethoxy-phenoxy)-5-methoxy-6-methyl-benzo[b]thiophene-2-carboxylic acid (2H-tetrazol-5-yl)-amide] | 126
COc1cc2c(Oc3ccc(OC4CCCC4)cc3)c(C(=O)Nc3nn[nH]n3)sc2cc1C [Example B.17, 3-(4-Cyclopentyloxy-phenoxy)-5-methoxy-6-methyl-benzo[b]thiophene-2-carboxylic acid (2H-tetrazol-5-yl)-amide] | 4
COc1cc2c(Oc3cccc(C(C)(C)C)c3)c(C(=O)Nc3nn[nH]n3)sc2cc1C [Example B.18, 3-(3-tert-Butyl-phenoxy)-5-methoxy-6-methyl-benzo[b]thiophene-2-carboxylic acid (2H-tetrazol-5-yl)-amide] | 29
COc1cc2c(Oc3ccc(C(C)(C)C)cc3)c(C(=O)Nc3nn[nH]n3)sc2cc1C [Example B.19, 3-(4-tert-Butyl-phenoxy)-5-methoxy-6-methyl-benzo[b]thiophene-2-carboxylic acid (2H-tetrazol-5-yl)-amide] | 9
COc1cc2c(Oc3ccc(-c4ccccc4)cc3)c(C(=O)Nc3nn[nH]n3)sc2cc1C [Example B.20, 3-(Biphenyl-4-yloxy)-5-methoxy-6-methyl-benzo[b]thiophene-2-carboxylic acid (2H-tetrazol-5-yl)-amide] | 77
COc1cc2c(Oc3ccc(OC4CCCCCC4)cc3)c(C(=O)Nc3nn[nH]n3)sc2cc1C [Example B.21, 3-(4-Cycloheptyloxy-phenoxy)-5-methoxy-6-methyl-benzo[b]thiophene-2-carboxylic acid (2H-tetrazol-5-yl)-amide] | 43
COc1cc2c(Oc3ccc(OC4CCCCC4)cc3)c(C(=O)Nc3nn[nH]n3)sc2cc1C [Example B.22, 3-(4-Cyclohexyloxy-phenoxy)-5-methoxy-6-methyl-benzo[b]thiophene-2-carboxylic acid (2H-tetrazol-5-yl)-amide] | 18
COc1cc2c(Oc3ccc(Oc4ccccc4)cc3)c(C(=O)Nc3nn[nH]n3)sc2cc1C [Example B.24, 5-Methoxy-6-methyl-3-(4-phenoxy-phenoxy)-benzo[b]thiophene-2-carboxylic acid (2H-tetrazol-5-yl)-amide] | 8
COc1cc2c(Oc3ccc(CCSC(C)(C)C)cc3)c(C(=O)Nc3nn[nH]n3)sc2cc1C [Example B.25, 3-[4-(2-tert-Butylsulfanyl-ethyl)-phenoxy)-5-methoxy-6-methyl-benzo[b]thiophene-2-carboxylic acid (2H-tetrazol-5-yl)-amide] | 25
COc1cc2c(Oc3ccc(C4(C)CCCCC4)cc3)c(C(=O)Nc3nn[nH]n3)sc2cc1C [Example B.26, 5-Methoxy-6-methyl-3-[4-(1-methyl-cyclohexyl)-phenoxy]-benzo[b]thiophene-2-carboxylic acid (2H-tetrazol-5-yl)-amide] | 67
COc1cc2c(Oc3ccc(C4(C)CCC(C)CC4)cc3)c(C(=O)Nc3nn[nH]n3)sc2cc1C (stereo not drawn) [Example B.27, 3-[4-(1,4-Dimethyl-cyclohexyl)-phenoxy]-5-methoxy-6-methyl-benzo[b]thiophene-2-carboxylic acid (2H-tetrazol-5-yl)-amide] | 125
COc1cc2c(Oc3ccc(C4CCCCC4)cc3C)c(C(=O)Nc3nn[nH]n3)sc2cc1C [Example B.28, 3-(4-Cyclohexyl-2-methyl-phenoxy)-5-methoxy-6-methyl-benzo[b]thiophene-2-carboxylic acid (2H-tetrazol-5-yl)-amide] | 61
COc1cc2c(Oc3ccc(C4CCCCC4)c(C)c3)c(C(=O)Nc3nn[nH]n3)sc2cc1C [Example B.29, 3-(4-Cyclohexyl-3-methyl-phenoxy)-5-methoxy-6-methyl-benzo[b]thiophene-2-carboxylic acid (2H-tetrazol-5-yl)-amide] | 275
COc1cc2c(Oc3ccc(C(C)c4ccccc4)cc3)c(C(=O)Nc3nn[nH]n3)sc2cc1C (stereo not drawn) [Example B.30, 5-Methoxy-6-methyl-3-[4-(1-phenyl-ethyl)-phenoxy]-benzo[b]thiophene-2-carboxylic acid (2H-tetrazol-5-yl)-amide] | 29
COc1cc2c(Oc3ccc(N4CCCCC4)cc3)c(C(=O)Nc3nn[nH]n3)sc2cc1C [Example B.31, 5-Methoxy-6-methyl-3-(4-piperidin-1-yl-phenoxy)-benzo[b]thiophene-2-carboxylic acid (2H-tetrazol-5-yl)-amide] | 87
